# Experimental data published in patent US9969761B2, “Stabilisation of radiopharmaceutical precursors” (GE HEALTHCARE LIMITED, priority 2004, dated 2018).
# Where “and” joins values, the source holds several entries; their conditions need not be identical. Equal entries are not always repeated.
# Key:
# [1] = Purity by HPLC-UV after storage; assay type: physicochemical; details: dry powder; 2 weeks storage at 50° C.
# Procedure: (§1) Filled and capped units are kept in storage at 25° C. and 50° C. in thermally controlled cabinets for set periods of time at which “pull points” a vial was removed from storage and subjected to the testing outlined below.
# (§2) Non-radioactive methods (cold) performed: • Appearance/organoleptic test, all pull points • Purity by HPLC-UV, all pull points • ^19F-NMR, all pull points • Water content analysis, at time zero.
# HPLC Method: octadecylsilyl silica gel (5 μm) column (Hichrom Nucleosil 100-5C18), temperature 25° C.; injection volume 20 μl; mobile phase of water: acetonitrile gradient, 1 ml/min. Detection by spectrophotometer at 220 nm.
# HPLC-UV traces for the solid mannose triflate control experiment and the acetonitrile solution of mannose triflate are shown in FIGS. 1 and 2 respectively. Mannose triflate elutes at 32.5 minutes.
# [2] = Radiolabelling with 18F- in a glassy carbon reactor after storage (pFDG RCP), Examples 1 and 2; assay type: physicochemical; details: storage time 0 weeks, MT 20 mg in 1.6 ml acetonitrile
# Procedure: as §1
# Radioactive methods (hot) performed: Radiolabelling with ^18F^− in a glassy carbon reactor (all pull points). Each dry sample of mannose triflate (20 mg) is dissolved in dry acetonitrile (1.6 ml). For the mannose triflate stored in acetonitrile, an aliquot (3.3 ml) was removed and diluted to 4.0 ml with acetonitrile and 1.6 ml of this solution was used in the radiolabelling test. For the samples taken after 2 weeks storage at 50° C., a 1.6 ml sample of the mannose triflate solution was used directly without further dilution. In all cases, the radiolabelling was performed after drying an ^18F solution of Kryptofix 2.2.2 (19.4 mg), potassium carbonate (41.0 mg), acetonitrile (0.32 ml) and water (0.04 ml) for 4 minutes at 80° C. before adding the test solution of mannose triflate in acetonitrile. The labelling reaction was carried out at 80° C. for 4 minutes in a glassy carbon reactor. […]
# Using similar method to Example 1, the stability of mannose triflate in acetonitrile with water at level of approximately 725, 1450, and 2500 ppm was evaluated. […]
# [3] = dry powder at 5° C.; cited from earlier work
# [4] = Comparative example: radiolabelling of stored dry powder mannose triflate, RCP by ITLC; assay type: physicochemical; details: for % RCP: dry powder
# Procedure: Dry powder mannose triflate was stored in vials at different temperatures and for different time periods.
# A solution of potassium carbonate (41 mg of potassium carbonate in 40 μl water) was added to a glassy carbon reactor and then a solution of kryptofix 222 (19.4 mg in 320 μl) was added separately. Then a solution of 18-fluoride in water (0.05 ml) was added and the solution dried by heating to 80° C. for 4 mins with a flow of dry nitrogen (at 0.3 liters/min). A solution of 1,3,4,6-tetra-O-acetyl-2-O-trifluoromethanesulfonyl-β-D-mannopyranose (20 mg in 1.6 ml dry acetonitrile) was then added and the reaction heated for a further 4 minutes at 80° C. The reaction was then cooled to 50° C. and a sample removed for analysis by ITLC (Instant thin layer chromatography) on TLC aluminium sheets silica gel 60 F254 eluting with 95% acetonitrile, 5% water. The radiochemical purity was calculated from the ratio of 1,3,4,6-tetra-O-acetyl-2-fluoro-β-D-mannopyranose to the total of the sugar and free fluoride (the sole two components from the reaction).
# [5] = Appearance/organoleptic test after storage; assay type: physicochemical; details: dry powder; 2 weeks storage at 50° C.
# Procedure: as §1, §2
# IR of stored dry powder = assay type: physicochemical; details: 2 weeks storage at 50° C.
smiles,measurement,setting,value
"CC(=O)OC[C@H]1O[C@@H](OC(C)=O)[C@@H](OS(=O)(=O)C(F)(F)F)[C@@H](OC(C)=O)[C@@H]1OC(C)=O [mannose triflate, 1,3,4,6-tetra-O-acetyl-2-O-trifluoromethanesulfonyl-β-D-mannopyranose]",HPLC-UV detection of mannose triflate,[1],no mannose triflate was detected
same,pFDG RCP %,[2]; listed as Control (N2),82% and 93%
same,pFDG RCP %,[2]; listed as Control (air),87% and 86%
same,shelf life,[3],6 months
same,% RCP,"[4]; 0 days under air, listed as Dry powder mannose triflate",87% and 86%
same,% RCP,"[4]; 1 day @ room temperature under dry N2, listed as Dry powder mannose triflate",82% and 93%
same,% RCP,[4]; 5 days @ 50° C. under air,5%
same,% RCP,[4]; 127 days @ 25° C. under air,1%
same,stability of dry powder (conclusion from RCP data),"[4]; room temperature, much worse at 50° C.",significant instability
same,Appearance/organoleptic,[5],black and smelled strongly of acetic acid
same,IR identity,IR of stored dry powder,no longer mannose triflate
